In US8530404B2, “Compounds and methods for treatment of cancer” (FibroGen, Inc., priority 2005, dated 2013):
Like-named read-outs stand apart in the source and are kept apart here.

Experiments:
[1] = Body weight in H-460 xenograft mice (Example 1); format: in vivo, mouse
Experimental: Sizes of the primary tumors were measured through the skin with calipers once per week. Tumor volumes were calculated by the formula V═(W^2*L)/2. Body weight of the mice in each group was also measured once per week during the experimental period. All animals were sacrificed following thirty-two days of treatment. Primary tumors were excised and weighed on an electronic balance. Blood samples were taken during terminal sacrifice and placed in microhematocrit tubes containing EDTA. Complete Blood Counts (CBC) and reticulocyte analysis were performed with the Cell Dyn 3700 analyzer (Abbott Diagnostics), as described by the manufacturer.
Thus, differences in tumor progression as measured by mean tumor volumes could not be attributed to any generalized toxicity or suppression of normal metabolism that might have been detected by changes in body weights.

BNIP3 gene expression [2] = assay: In vivo BNIP3 gene expression in Swiss Webster mice (quantitative PCR); settings: Mus musculus, iv, 4 h, single 60 mg/kg i.v. dose, four hours after administration, normalized to 18S
Experimental: The effects of various compounds of the present invention on the expression of genes associated with tumor growth and progression (e.g., expression of genes associated with anti-proliferative effects) were examined in vivo as follows. In these studies, male Swiss Webster mice (25 g) were administered a single intravenous (i.v.) dose of various compounds (60 mg/kg) of the present invention via the tail vein. Four hours after administration of compound, the kidneys and liver were removed and preserved in RNAlater (Ambion). RNA isolation and cDNA synthesis was carried out as follows. Murine kidney tissue was added to TRIzol (Invitrogen) and homogenized using a 5-mm stainless steel bead for 4 minutes at 25 Hz in a Mixer Mill 300 (Qiagen). Homogenates were extracted with chloroform according to the manufacturer's instructions and aqueous supernatants were isolated. The aqueous supernatants were combined with equal volumes of 70% ethanol and then loaded onto RNeasy Mini spin columns (Qiagen). RNA was isolated according to the manufacturer's instructions.
Synthesis of cDNA from the isolated total RNA was carried out using Omniscript reverse transcriptase (Qiagen) and random primers according to the manufacturer's instructions. Measurement of gene expression levels in compound-treated animals and in vehicle-treated control animals was performed by quantitative PCR using TaqMan Universal PCR Master Mix (Applied Biosystems) and TaqMan Assay-on-Demand assays (Applied Biosystems) in a Prism 7000 system instrument (Applied Biosystems), according to manufacturer's instructions. The assays used were as follows: 18S ribosomal RNA, Hs99999901_s1; BNIP3, Mm00833810_g1; BNIP3L, Mm00786306_s1; NDRG1, Mm00440447_m1. Each PCR amplification reaction included a standard curve and a water blank. Data for gene expression levels for BNIP3, BNIP3L, and NDRG1 were normalized to that of 18S ribosomal RNA within each sample. Data is presented as fold change in specific mRNA levels relative to that of non-treated control animals.

BNIP3 gene expression [3] = assay: BNIP3 gene expression in Kelly neuroblastoma cells; format: cell-based; settings: Kelly, read-out: fold-increase in BNIP3 mRNA expression
Experimental: To identify compounds useful in the methods of the present invention, the following studies were performed. The effect of compounds of the present invention on expression of various genes associated with anti-tumor activity (e.g., genes having anti-proliferative activity, genes having pro-apoptotic activity, genes having anti-tumor activity, etc.). In these experiments, the effect of compounds on BNIP3, BNIP3L, NDRG1, CDKN1C, and REDD1/RTP801 gene expression in various types of cultured tumor cells line was examined, including Hep3B cells (human hepatocellular carcinoma), Kelly neuroblastoma cells, and MCF7 cells (human breast cancer)
The effects of various compounds of the present invention on the expression of genes associated with tumor growth and progression were examined in Kelly neuroblastoma cells as follows. Kelly neuroblastoma cells were grown in RPMI media. For each experiment, Kelly neuroblastoma cells were added to 96-well tissue culture plates (approximately 40,000 cells per well) such that the plated cells reached confluence the following day. On the following day, the cells were washed and the media replaced with RPMI containing 0.5% FBS. Various compounds of the present invention were added to the cultured cells to a final concentration of 20 μM, and the cells cultured for an additional 20-24 hours. DMSO (0.5%) was added to control cell cultures.
RNA was isolated from the Kelly neuroblastoma cells using a commercial kit and used for the preparation of cDNA. BNIP3, CDKN1C, and 18S RNA levels were measured using commercial kits (18S, Applied Biosystems cat#4319413E); BNIP3, Applied Biosystems cat#HS00969293 MH). RNA levels for BNIP3 and CDKN1C were normalized to that of 18S RNA and is presented as fold-change compared to that observed in DMSO control cultures. Kelly cell NDRG1 and BNIP3L mRNA levels were measured by Affymetrix microarray in a separate study. Cells were harvested after 6 hours incubation with 20 μM test compound or DMSO (0.5%) as control. RNA was isolated and labeled probes were prepared and hybridized to U133 Plus 2.0 Affymetrix microarrays. Changes in gene expression levels are presented as fold change compared to that of control (0.5% DMSO-treated) cultures.

[4] = read-out: fold change in BNIP3 mRNA level, kidney
[5] = read-out: fold change in BNIP3 mRNA level, liver

| Structure (SMILES) | mean animal body weight ([1]; day 0, 20 mg/kg PO) [grams] | mean animal body weight ([1]; day 0, 60 mg/kg PO) [grams] | mean animal body weight ([1]; day 10, 20 mg/kg PO) [grams] | mean animal body weight ([1]; day 10, 60 mg/kg PO) [grams] | mean animal body weight ([1]; day 17, 20 mg/kg PO) [grams] | mean animal body weight ([1]; day 17, 60 mg/kg PO) [grams] | mean animal body weight ([1]; day 24, 20 mg/kg PO) [grams] | mean animal body weight ([1]; day 24, 60 mg/kg PO) [grams] | mean animal body weight ([1]; day 31, 20 mg/kg PO) [grams] | mean animal body weight ([1]; day 31, 60 mg/kg PO) [grams] | fold induction at 60 mg/kg (BNIP3 gene expression [2]; [4]) | mean animal body weight ([1]; day 0, 6 mg/kg PO) [grams] | mean animal body weight ([1]; day 10, 6 mg/kg PO) [grams] | mean animal body weight ([1]; day 17, 6 mg/kg PO) [grams] | mean animal body weight ([1]; day 24, 6 mg/kg PO) [grams] | mean animal body weight ([1]; day 31, 6 mg/kg PO) [grams] | fold induction at 20 µM (BNIP3 gene expression [3]) | fold induction at 60 mg/kg (BNIP3 gene expression [2]; [5]) |
| --- | --- | --- | --- | --- | --- | --- | --- | --- | --- | --- | --- | --- | --- | --- | --- | --- | --- | --- |
| O=C(O)CNC(=O)c1nc(Cl)c2ccccc2c1O [Compound A, [(1-Chloro-4-hydroxy-isoquinoline-3-carbonyl)-amino]-acetic acid] | 25.2 | 24.5 | 30.1 | 30.0 | 30.5 | 30.5 | 30.6 | 30.6 | 30.3 | 29.9 | – | – | – | – | – | – | – | – |
| C[C@H](NC(=O)c1ncc2cc(Oc3ccccc3)ccc2c1O)C(=O)O [Compound B, (S)-2-[(4-Hydroxy-7-phenoxy-isoquinoline-3-carbonyl)-amino]-propionic acid] | 25.7 | – | 27.8 | – | 29.0 | – | 29.3 | – | 29.3 | – | 2.1 | 26.3 | 27.9 | 29.1 | 29.3 | 29.3 | 17.2 | – |
| COc1ccc(Oc2ccc3c(O)c(C(=O)NCC(=O)O)ncc3c2)cc1 [Compound C, {[4-Hydroxy-7-(4-methoxy-phenoxy)-isoquinoline-3-carbonyl]-amino}-acetic acid] | 25.7 | – | 29.4 | – | 29.9 | – | 31.0 | – | 30.9 | – | 1.5 | – | – | – | – | – | 2.6 | 3.5 |
| Cc1nc(C(=O)NCC(=O)O)c(O)c2ccc(Oc3ccccc3)cc12 [Compound D, [(4-Hydroxy-1-methyl-7-phenoxy-isoquinoline-3-carbonyl)-amino]-acetic acid] | – | – | – | – | – | – | – | – | – | – | 5.8 | – | – | – | – | – | 21.9 | 1.5 |
| O=C(O)CNC(=O)c1ncc2cc(Oc3ccc(F)cc3)ccc2c1O [Compound E, {[7-(4-fluoro-phenoxy)-4-hydroxy-isoquinoline-3-carbonyl]-amino}-acetic acid] | – | – | – | – | – | – | – | – | – | – | 2.1 | – | – | – | – | – | 31.8 | 1.8 |
